Test results published in ChEMBL document CHEMBL4219258, “Determination of absolute configuration and binding efficacy of benzimidazole-based FabI inhibitors through the support of electronic circular dichroism and MM-GBSA techniques” (Bioorg Med Chem Lett, 2018).

Assay: Inhibition of Francisella tularensis FabI

SMILES | IC50 [µM]
C[C@H](c1ccc(Cl)c(Cl)c1)n1cnc2cc3c(cc21)CCC3 | 1.84
C[C@@H](c1ccc(Cl)c(Cl)c1)n1cnc2cc3c(cc21)CCC3 | 0.016
C[C@H](c1ccc(Cl)c(Cl)c1)n1cnc2cc3c(cc21)CCCC3 | 7.8
C[C@@H](c1ccc(Cl)c(Cl)c1)n1cnc2cc3c(cc21)CCCC3 | 0.014
